From patent US12584916B2, “Method for measuring the modulation of the activation of a G protein-coupled receptor with GTP analogues” (CISBIO BIOASSAYS, priority 2019, dated 2026)

Tests used:
Delta Opioid GPCR = target: T1, Delta Opioid GPCR (Homo sapiens, UniProt P41143); test: Activation test according to format 2A on Delta Opioid GPCR (antagonist mode); assay type: biochemical; conditions: Example 15; SNC162 200 nM fixed; increasing antagonist concentration; GTPgN-octyl-C2 6 nM + DSV36S-d2 10 nM; CHO-DOR membranes; NaCl 300 mM; GDP 0.5 μM
T1 construct: purchased Perkin Elmer or Euroscreen
Procedure: All the reagents were diluted in TrisHCl buffer 50 mM pH 7.4, MgCl2 10 mM, BSA 0.1%, NaCl 10 mM or 100 mM or 300 mM or 500 mM (concentration specified in the legend of each figure), 0 or 0.5 or 1 μM GDP (concentration specified in the legend of each figure). The membranes were prepared 4× for distributing 1 or 10 μg/well (amount specified in the legend of each figure). The nucleotide GTPgS (nonspecific signal condition) was prepared 6.67× to obtain a final concentration in the wells of 100 μM. The test compounds (agonists or antagonists) were prepared 10× to obtain the final concentrations in the wells mentioned in the diagrams. […]
• Membranes expressing the GPCR and the G protein: 5 μL • Buffer or GTPgS nucleotide (for the nonspecific signal condition): 3 μL • Nonhydrolyzable/slowly hydrolyzable GTP analogue—donor or acceptor: 5 μL • anti G-alphai-donor or acceptor ligand: 5 μL • Buffer or test compounds (agonists and/or antagonists): 2 μL. The nonspecific signal (fluorescence background noise) was measured with wells containing an excess of GTPgS (100 μM). Reading the HTRF Signal […]
From the raw signals at 665 nm (for red acceptor—Cy5) or 520 nm (for green acceptors—AF488 or Fluorescein) and 620 nm, the HTRF Ratio was calculated from the following formula: HTRF Ratio=Signal at 665 nm or Signal at 520 nm/Signal at 620 nm*10.000. […]

[1] = target: switch II domain of the alphai G-protein (Homo sapiens, UniProt P63096); test: Binding site of the anti-G-alphai antibodies
Sequence of switch II domain of the alphai G-protein (P63096 whole entry, the tested form may be a part): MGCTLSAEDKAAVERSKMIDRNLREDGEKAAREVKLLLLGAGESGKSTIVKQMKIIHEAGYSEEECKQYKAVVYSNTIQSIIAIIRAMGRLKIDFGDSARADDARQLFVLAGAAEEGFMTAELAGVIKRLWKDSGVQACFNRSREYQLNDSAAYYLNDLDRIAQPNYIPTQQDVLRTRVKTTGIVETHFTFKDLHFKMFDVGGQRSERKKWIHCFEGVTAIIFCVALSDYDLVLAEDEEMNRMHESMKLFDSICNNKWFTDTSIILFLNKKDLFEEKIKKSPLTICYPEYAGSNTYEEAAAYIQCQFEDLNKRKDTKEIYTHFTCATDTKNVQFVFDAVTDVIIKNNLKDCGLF

T1 sequence (P41143 whole entry): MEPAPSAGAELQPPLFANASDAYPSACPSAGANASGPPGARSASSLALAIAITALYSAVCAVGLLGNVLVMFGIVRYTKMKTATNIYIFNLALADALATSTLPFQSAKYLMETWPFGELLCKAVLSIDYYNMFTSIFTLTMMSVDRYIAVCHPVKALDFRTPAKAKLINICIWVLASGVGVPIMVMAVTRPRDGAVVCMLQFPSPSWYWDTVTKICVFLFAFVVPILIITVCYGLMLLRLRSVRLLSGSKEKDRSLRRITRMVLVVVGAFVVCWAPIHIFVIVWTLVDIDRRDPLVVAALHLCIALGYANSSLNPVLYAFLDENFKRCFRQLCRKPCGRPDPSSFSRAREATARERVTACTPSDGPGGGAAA

Molecule | inhibition of activation by agonist SNC162 (decrease in the TR-FRET signal, HTRF Ratio) (Delta Opioid GPCR) | binding site on the alphai G-protein [1]
Oc1ccc2c3c1O[C@H]1c4[nH]c5ccccc5c4C[C@@]4(O)[C@@H](C2)N(CC2CC2)CC[C@]314 [Naltrindole] | inhibited | 
DSV36S: anti-G-alphai antibody of Cisbio Bioassays, VH SEQ ID NO: 15 and VL SEQ ID NO: 16; used labeled with d2 or Lumi4Tb (antibody, V domains shown, d2 or Lumi4Tb label; Heavy chain variable domain (VH); Light chain variable domain (VL)) VH: EVQLQQSGAELVRPGALVKLSCKASGFNIKDYYMHWVKQRPEQGLEWIGWIDPENGNTIYDPKFQGKASITADTSSNTAYLQLSSLTSEDTAVYYCTRGGGYYSDWYFDVWGAGTTVTVSS VL: QIVLTQSPAIMSASPGEKVTMTCSASSSVSYMHWYQQKSGTSPKRWIYDTSKLASGVPARFSGSGSGTSYSLTISSMEAEDAATYYCQQWSSNPPITFGAGTKLELK |  | bind at the level of the switch II domain of the alphai G-protein
